Measured values as given in ChEMBL document CHEMBL5247647, “Phenothiazine-Based LSD1 Inhibitor Promotes T-Cell Killing Response of Gastric Cancer Cells” (J Med Chem, 2023).

Molecular target: Lysine-specific histone demethylase 1A (Homo sapiens, UniProt O60341)
Test: Inhibition of recombinant LSD1 (unknown origin) expressed in Escherichia coli BL21 (DE3) using H3K4me2 peptide as substrate incubated for 30 mins by fluorescence based microplate reader assay

IC50: 5.14 µM
SMILES: CN(C)CCCN1c2ccccc2Sc2ccc(Cl)cc21 [CHLORPROMAZINE]
